Test results: patent US20260027116A1, “Methods of Treating Chronic Graft-Versus-Host Disease Following Allogeneic Hematopoietic Stem Cell Transplantation” (Kadmon Corporation, LLC, priority 2022, published 2026)

Tested on: patients with cGVHD
Details: Cohort 2 200 mg BID

CC(C)NC(=O)COc1cccc(-c2nc(Nc3ccc4[nH]ncc4c3)c3ccccc3n2)c1 [Belumosudil, 2-{3-[4-(1H-indazol-5-ylamino)-2-quinazolinyl]phenoxy}-N-(propan-2-yl) acetamide]
3: Headache: # Events | Hypokalaemia: # Events
2 (13): Grade ≥3 ALT/AST increased, No. (%) | Grade ≥3 Dyspnea, No. (%) | Grade ≥3 Lung infection or pneumonia, No. (%)
4: Dehydration: # Events | Depression: # Events | Dizziness: # Events | Dry eye: # Events | Dysphagia: # Events | Eye pain: # Events | Gamma-glutamyltransferase increased: # Events | Hypocalcaemia: # Events
2/16 (12.5%): Contrast media allergy: Affected/At Risk (%) | Contusion: Affected/At Risk (%) | Decreased appetite: Affected/At Risk (%) | Dyspepsia: Affected/At Risk (%) | Eye pain: Affected/At Risk (%) | Hyperkalaemia: Affected/At Risk (%) | Hypertension: Affected/At Risk (%) | Hypokalaemia: Affected/At Risk (%) | Hypoxia: Affected/At Risk (%)
7: Dyspnoea: # Events | Fatigue: # Events
1/16 (6.25%): Chills: Affected/At Risk (%) | Conjunctival haemorrhage: Affected/At Risk (%) | Conjunctivitis: Affected/At Risk (%) | Constipation: Affected/At Risk (%) | Corneal infection: Affected/At Risk (%) | Dizziness: Affected/At Risk (%) | Drug eruption: Affected/At Risk (%) | Enamel anomaly: Affected/At Risk (%) | Eye pruritus: Affected/At Risk (%) | Fall: Affected/At Risk (%) | Flatulence: Affected/At Risk (%) | Flushing: Affected/At Risk (%) | Gastric ulcer: Affected/At Risk (%) | Gastrooesophageal reflux disease: Affected/At Risk (%) | Genital infection fungal: Affected/At Risk (%) | Gynaecomastia: Affected/At Risk (%) | Haematuria: Affected/At Risk (%) | Hyperhidrosis: Affected/At Risk (%) | Hyperthyroidism: Affected/At Risk (%) | Hypertriglyceridaemia: Affected/At Risk (%) | Hyperuricaemia: Affected/At Risk (%) | Hypocalcaemia: Affected/At Risk (%) | Hypomagnesaemia: Affected/At Risk (%) | Hypophosphataemia: Affected/At Risk (%) | Hypothermia: Affected/At Risk (%) | Hypothyroidism: Affected/At Risk (%) | Influenza like illness: Affected/At Risk (%) | Influenza: Affected/At Risk (%) | Joint range of motion decreased: Affected/At Risk (%) | Lacrimation increased: Affected/At Risk (%)
0: Bronchoscopy: # Events | Catheter site haemorrhage: # Events | Chronic kidney disease: # Events | Corneal abrasion: # Events | Death, No. (%) | Drug-related SAE, No. (%) | Dry skin: # Events | Dyspnoea exertional: # Events | Embolism: # Events | Epidural lipomatosis: # Events | Epstein-Barr virus infection: # Events | Erectile dysfunction: # Events | Eye irritation: # Events | Fungal infection: # Events | Generalised oedema: # Events | Glucose urine present: # Events | Grade ≥3 Hyperglycemia, No. (%) | Graft versus host disease in gastrointestinal tract: # Events | Hair growth abnormal: # Events | Hodgkin's disease recurrent: # Events | Hordeolum: # Events | Hot flush: # Events | Hyperglycemia: # Events | Hypoaesthesia: # Events | Hypogonadism: # Events | Hyponatraemia: # Events | Impaired healing: # Events | Insomnia: # Events | Irritability: # Events | Leukaemia recurrent: # Events | Leukocytosis: # Events | Ligament sprain: # Events | Limb injury: # Events
0/16 (0%): Bronchoscopy: Affected/At Risk (%) | Catheter site haemorrhage: Affected/At Risk (%) | Chronic kidney disease: Affected/At Risk (%) | Corneal abrasion: Affected/At Risk (%) | Dry skin: Affected/At Risk (%) | Dyspnoea exertional: Affected/At Risk (%) | Embolism: Affected/At Risk (%) | Epidural lipomatosis: Affected/At Risk (%) | Epstein-Barr virus infection: Affected/At Risk (%) | Erectile dysfunction: Affected/At Risk (%) | Eye irritation: Affected/At Risk (%) | Fungal infection: Affected/At Risk (%) | Generalised oedema: Affected/At Risk (%) | Glucose urine present: Affected/At Risk (%) | Graft versus host disease in gastrointestinal tract: Affected/At Risk (%) | Hair growth abnormal: Affected/At Risk (%) | Hodgkin's disease recurrent: Affected/At Risk (%) | Hordeolum: Affected/At Risk (%) | Hot flush: Affected/At Risk (%) | Hyperglycemia: Affected/At Risk (%) | Hypoaesthesia: Affected/At Risk (%) | Hypogonadism: Affected/At Risk (%) | Hyponatraemia: Affected/At Risk (%) | Impaired healing: Affected/At Risk (%) | Insomnia: Affected/At Risk (%) | Irritability: Affected/At Risk (%) | Leukaemia recurrent: Affected/At Risk (%) | Leukocytosis: Affected/At Risk (%) | Ligament sprain: Affected/At Risk (%) | Limb injury: Affected/At Risk (%)
1: Chills: # Events | Conjunctival haemorrhage: # Events | Conjunctivitis: # Events | Constipation: # Events | Drug eruption: # Events | Enamel anomaly: # Events | Eye pruritus: # Events | Fall: # Events | Flushing: # Events | Gastric ulcer: # Events | Gastrooesophageal reflux disease: # Events | Genital infection fungal: # Events | Glaucoma: # Events | Gynaecomastia: # Events | Haematuria: # Events | Hyperhidrosis: # Events | Hyperthyroidism: # Events | Hypertriglyceridaemia: # Events | Hypomagnesaemia: # Events | Hypophosphataemia: # Events | Hypothermia: # Events | Joint range of motion decreased: # Events | Lacrimation increased: # Events | Macular degeneration: # Events
8 (50): Drug-related AE, No. (%)
10 (63): Grade ≥3 AE, No. (%)
5: Cough: # Events | Hypertension: # Events | Hypoxia: # Events
1 (6): Grade ≥3 Anemia, No. (%) | Grade ≥3 Hypoxia, No. (%)
5/16 (31.25%): Diarrhoea: Affected/At Risk (%) | Dyspnoea: Affected/At Risk (%)
10: Diarrhoea: # Events
3/16 (18.75%): Dehydration: Affected/At Risk (%) | Dysphagia: Affected/At Risk (%) | Fatigue: Affected/At Risk (%) | Headache: Affected/At Risk (%)
4/16 (25%): Cough: Affected/At Risk (%) | Depression: Affected/At Risk (%) | Dry eye: Affected/At Risk (%) | Gamma-glutamyltransferase increased: Affected/At Risk (%)
2: Contrast media allergy: # Events | Contusion: # Events | Corneal infection: # Events | Decreased appetite: # Events | Dyspepsia: # Events | Flatulence: # Events | Hyperkalaemia: # Events | Hyperuricaemia: # Events | Hypothyroidism: # Events | Influenza like illness: # Events | Influenza: # Events
